This assay concerns Plasmodium berghei. Kind of assay: Luciferase/luciferin-expressing antifolate-resistant parasites were used to infect a culture of HepG2 cells that were pre-incubated with compounds. Infected hepatocytes emit light due to the luciferase reaction. Assay results are presented as the percent inhibition of light emission compared to control. […]. Type of assay: functional. As to conditions: sporozoite; for IC90: read-out: LUCIFERASE INFECTION ASSAY - IC90.

The mark [1] stands for this setting: read-out: LUCIFERASE INFECTION ASSAY - IC50.

Structures are written as SMILES.

For the compound `O=C(NC12CC3CC(CC(C3)C1)C2)c1ccc(=O)n(Cc2ccccc2)n1`, the IC90 was more than 10 µM. Further, the IC50 (PBLUC_HILL_SLOPE 1.2, PBLUC_R_SQUARED 0.803, read-out: LUCIFERASE INFECTION ASSAY - IC50) was determined as 5.96 µM.

On to `FC(F)(F)c1ccc(Nc2n[nH]c(=S)s2)cc1`, for which the IC90 is more than 11.9 µM. For the same compound, the IC50 (PBLUC_HILL_SLOPE 2.58, PBLUC_R_SQUARED 0.163, read-out: LUCIFERASE INFECTION ASSAY - IC50) was found to be 8.08 µM.

For `Cc1cc(C(=O)NCCSc2ccccc2)c(C)n1C(C)C`, the IC90 came out at 6.44 µM. Where the note is “PBLUC_HILL_SLOPE 0.93, PBLUC_R_SQUARED 0.762, read-out: LUCIFERASE INFECTION ASSAY - IC50”, the IC50 was found to be 0.607 µM.

As for `CC(=O)N(c1nn(CN(C2CC2)C2CCS(=O)(=O)C2)c(=S)s1)C1CC1` (stereo unspecified), the IC90 was more than 10 µM. Also, under “FFLUC_HILL_SLOPE 12.8, FFLUC_R_SQUARED 0.42, read-out: LUCIFERASE INFECTION ASSAY - IC50”, the IC50 is more than 10 µM.

For `COCOc1ccc(-c2cc(-c3cccc(NC(C)=O)c3)cnc2N)cc1`, the IC90 amounted to 5.97 µM. Besides, the IC50 (PBLUC_HILL_SLOPE 4.33, PBLUC_R_SQUARED 0.629, read-out: LUCIFERASE INFECTION ASSAY - IC50) is 3.59 µM.

As for `O=C(O)C1CC=CCC1C(=O)NN=c1nc[nH]c2ccccc12` (stereo unspecified), the concentration for an effect of 90% (IC90) is more than 10 µM. Further, under setting [1], the IC50 is more than 10 µM.

For the compound `Cc1nnc(Sc2ncc([N+](=O)[O-])s2)n1-c1ccc(OCc2ccccc2)cc1`, the IC90 is more than 7.76 µM. For the same compound, the IC50 under setting [1] was more than 7.76 µM.

Consider `CC(C)Cc1ccc(C(C)NC(=O)c2ccc(CNC(N)=O)cc2)cc1` (stereo unspecified), for which the IC90 was more than 10 µM. Where the note is “HEPG2TOX_HILL_SLOPE 1.82, HEPG2TOX_R_SQUARED 0.295, read-out: LUCIFERASE INFECTION ASSAY - IC50”, the IC50 was more than 10 µM.

As for `O=C(NC(c1ccccc1)C1CC1)C1=NN(c2ccccc2)C(=O)CN1` (stereo unspecified), the IC90 is 9.85 µM. Besides, under “PBLUC_HILL_SLOPE 18.7, PBLUC_R_SQUARED 0.556, read-out: LUCIFERASE INFECTION ASSAY - IC50”, the IC50 was 8.76 µM.

Regarding `CN(CC(=O)Nc1nc2ccc(Cl)cc2s1)S(=O)(=O)c1ccc(C#N)cc1`, the IC90 is 8.36 µM. Under setting [1], the half-inhibitory concentration (IC50) was 5.71 µM.

For `OCc1cccc(-c2cnc3cnc(-c4ccc(CNc5ccccc5)cc4)cn23)c1`, the IC90 was more than 8.12 µM. Moreover, the IC50 (FFLUC_HILL_SLOPE 0.18, FFLUC_R_SQUARED 0.146, PBLUC_HILL_SLOPE 3.27, PBLUC_R_SQUARED 0.516, read-out: LUCIFERASE INFECTION ASSAY - IC50) turned out to be 6.25 µM.

In the case of `Cc1ccc(S(=O)(=O)Nc2ccccc2-c2nnc(-c3ccc(C(C)(C)C)cc3)o2)cc1`, the IC90 is more than 7.37 µM. The IC50 (HEPG2TOX_HILL_SLOPE 0.544, HEPG2TOX_R_SQUARED 0.0439, read-out: LUCIFERASE INFECTION ASSAY - IC50) was more than 7.37 µM.

As to `O=C(N/N=C/C1=C(N2CCOCC2)C(=C/c2ccc(Cl)cc2Cl)/CC1)c1ccco1`, the IC90 was 6.76 µM. For the same compound, under “PBLUC_HILL_SLOPE 1.95, PBLUC_R_SQUARED 0.652, read-out: LUCIFERASE INFECTION ASSAY - IC50”, the IC50 was 2.18 µM.

With `Cc1ccc(Cn2nnc(-c3ccccc3C)n2)cc1`, the IC90 is more than 12.5 µM. Also, under setting [1], the IC50 is more than 12.5 µM.

For `O=C(/C=C/c1ccc2ccccc2n1)N1CCCC(c2nc3ccccc3[nH]2)C1` (stereo unspecified), the IC90 was determined as 9.5 µM. Further, the IC50 (HEPG2TOX_HILL_SLOPE 11.0, 10.5, HEPG2TOX_R_SQUARED 0.675, 0.360, PBLUC_HILL_SLOPE 2.71, 0.363, PBLUC_R_SQUARED 0.567, 0.526, read-out: LUCIFERASE INFECTION ASSAY - IC50) was found to be 2.81 µM.

Regarding `Fc1ccc(CN2CCN(Cc3ccco3)CC2)cc1`, the IC90 is more than 12 µM. In addition, the IC50 under setting [1] was more than 12 µM.

In the case of `O=C(Nc1cccc(S(=O)(=O)N2CCCCC2)c1)c1cn(-c2ccccc2C(F)(F)F)nn1`, the IC90 is more than 10 µM. For the same compound, the IC50 (FFLUC_HILL_SLOPE 0.647, FFLUC_R_SQUARED 0.258, read-out: LUCIFERASE INFECTION ASSAY - IC50) is more than 10 µM.

Regarding `CC(Nc1ccc2c(c1)CCC2)C(=O)Nc1sccc1C(N)=O` (stereo unspecified), the IC90 stood at 1.74 µM. For the same compound, the IC50 (HEPG2TOX_HILL_SLOPE 0.241, HEPG2TOX_R_SQUARED 0.874, PBLUC_HILL_SLOPE 11.9, PBLUC_R_SQUARED 0.588, read-out: LUCIFERASE INFECTION ASSAY - IC50) was 1.45 µM.

Regarding `Cc1ccc(-c2nc3c(s2)CN(C(=O)c2ccco2)CC3)cc1`, the concentration for an effect of 90% (IC90) came out at 3.19 µM. The IC50 (PBLUC_HILL_SLOPE 23.5, PBLUC_R_SQUARED 0.61, read-out: LUCIFERASE INFECTION ASSAY - IC50) was determined as 2.9 µM.

As to `c1cncc(-c2cn3c(-c4cccs4)cnc3cn2)c1`, the IC90 is more than 11.9 µM. Besides, under setting [1], the IC50 is more than 11.9 µM.

Consider `O=C(Nc1ccccc1)ON=C1CC2CCCC(C1)N2Cc1ccccc1`, for which the IC90 was more than 9.08 µM. Besides, the IC50 (PBLUC_HILL_SLOPE 1.59, PBLUC_R_SQUARED 0.239, read-out: LUCIFERASE INFECTION ASSAY - IC50) is more than 9.08 µM.

In the case of `O=[N+]([O-])c1cc2c(cc1C(O)c1nnc(-c3ccccc3)o1)OCO2` (stereo unspecified), the IC90 was 8.01 µM. Moreover, the IC50 under setting [1] amounted to 1.69 µM.

Regarding `CCCCNC(=O)C1(C)CCCCN1C(=O)c1ccc2c(c1)C(C)(C)CCC2(C)C` (stereo unspecified), the IC90 is more than 8 µM. Moreover, under “PBLUC_HILL_SLOPE 3, PBLUC_R_SQUARED 0.424, read-out: LUCIFERASE INFECTION ASSAY - IC50”, the IC50 stood at 7.41 µM.

On to `O=C(Nc1ccc2c(c1)OCO2)c1cnc(N2CCN(CCc3ccccc3)C2=O)o1`, for which the IC90 is more than 10 µM. In addition, where the note is “HEPG2TOX_HILL_SLOPE 7.5, HEPG2TOX_R_SQUARED 0.498, PBLUC_HILL_SLOPE 1.96, PBLUC_R_SQUARED 0.361, read-out: LUCIFERASE INFECTION ASSAY - IC50”, the IC50 came to 3.61 µM.

As to `COC(=O)c1c(NC(=O)CN(C)Cc2ccc(OC(F)F)c(OC)c2)sc(C)c1C`, the IC90 was more than 10 µM. Also, the IC50 under setting [1] is more than 10 µM.

For the compound `Clc1ccc(Nc2nccc3c2ncn3Cc2ccccc2)cc1`, the IC90 is more than 10 µM. Moreover, where the note is “HEPG2TOX_HILL_SLOPE 10.4, HEPG2TOX_R_SQUARED 0.978, PBLUC_HILL_SLOPE 0.755, PBLUC_R_SQUARED 0.638, read-out: LUCIFERASE INFECTION ASSAY - IC50”, the IC50 turned out to be 0.827 µM.

On to `COc1ccc(O)c(C(=O)c2cnc(Nc3nc(C)c4ccccc4n3)nc2)c1`, for which the IC90 is more than 10 µM. Further, the IC50 (FFLUC_HILL_SLOPE 8.56, FFLUC_R_SQUARED 0.251, read-out: LUCIFERASE INFECTION ASSAY - IC50) was more than 10 µM.

Consider `Oc1ccc(-c2cnc3cnc(-c4ccc(Cl)cc4Cl)cn23)cc1`, for which the IC90 is 3.44 µM. For the same compound, the IC50 (HEPG2TOX_HILL_SLOPE 1.37, HEPG2TOX_R_SQUARED 0.776, PBLUC_HILL_SLOPE 1.58, PBLUC_R_SQUARED 0.733, read-out: LUCIFERASE INFECTION ASSAY - IC50) worked out at 0.858 µM.

For the compound `Fc1cccc(Cl)c1CSc1ccc(Cl)c(Cl)c1`, the IC90 was more than 10.3 µM. The IC50 (FFLUC_HILL_SLOPE 1.69, FFLUC_R_SQUARED 0.519, read-out: LUCIFERASE INFECTION ASSAY - IC50) was more than 10.3 µM.

For `Cc1cc(C(=O)CN2CCC(C(=O)Nc3ccc4c(c3)OCO4)CC2)c(C)n1Cc1cccs1`, the 90% effect concentration (IC90) was more than 10 µM. Also, the IC50 (FFLUC_HILL_SLOPE 9.45, FFLUC_R_SQUARED 0.378, read-out: LUCIFERASE INFECTION ASSAY - IC50) is more than 10 µM.

For the compound `Nc1ncc(-c2ccc(F)c(Cl)c2)cc1-c1cccc(O)c1`, the IC90 was more than 10.5 µM. Besides, under setting [1], the IC50 was more than 10.5 µM.

For `COc1cccc(-c2cc3c(Nc4cccc(OC(C)C)c4)nccc3n2C)c1`, the IC90 was more than 10 µM. The IC50 (PBLUC_HILL_SLOPE 2.76, PBLUC_R_SQUARED 0.246, read-out: LUCIFERASE INFECTION ASSAY - IC50) was 6.87 µM.

As to `CCOc1cc2c(cc1CNC(=O)Cn1cnc3c(cnn3-c3ccccc3)c1=O)OC(C)C2` (stereo unspecified), the concentration for an effect of 90% (IC90) was more than 10 µM. Further, the IC50 (FFLUC_HILL_SLOPE 95.3, FFLUC_R_SQUARED 0.504, HEPG2TOX_HILL_SLOPE 1.9, HEPG2TOX_R_SQUARED 0.749, read-out: LUCIFERASE INFECTION ASSAY - IC50) was more than 10 µM.

Turning to `COc1ccc(/C=C(/C(=O)Nc2ccc(C)c(C)c2)c2nc3ccccc3s2)cc1`, the IC90 came out at 3.66 µM. Moreover, the IC50 (HEPG2TOX_HILL_SLOPE 13.8, HEPG2TOX_R_SQUARED 0.904, PBLUC_HILL_SLOPE 19.4, PBLUC_R_SQUARED 0.196, read-out: LUCIFERASE INFECTION ASSAY - IC50) was found to be 3.27 µM.

In the case of `N#CC(=N)C(C#N)NCc1ccccc1Sc1ccc(Cl)cc1` (stereo unspecified), the IC90 was more than 9.68 µM. Further, under setting [1], the IC50 was more than 9.68 µM.

In the case of `Cn1ccc2cc(-c3cn4c(-c5ccccc5)cnc4cn3)ccc21`, the IC90 was found to be 2.78 µM. For the same compound, for the setting “HEPG2TOX_HILL_SLOPE 1.3, HEPG2TOX_R_SQUARED 0.937, PBLUC_HILL_SLOPE 1.56, PBLUC_R_SQUARED 0.678, read-out: LUCIFERASE INFECTION ASSAY - IC50”, the IC50 was 0.679 µM.

With `Cc1cc(C(=O)COc2ccc(C(N)=O)cc2)c(C)n1-c1ccc2c(c1)OCO2`, the IC90 was 5.43 µM. Also, for the setting “HEPG2TOX_HILL_SLOPE 1.28, HEPG2TOX_R_SQUARED 0.792, PBLUC_HILL_SLOPE 4.73, PBLUC_R_SQUARED 0.266, read-out: LUCIFERASE INFECTION ASSAY - IC50”, the IC50 was determined as 3.41 µM.

On to `CC(C)(C)n1ncc(C(=O)NCCOc2ccccc2)c1C(F)(F)F`, for which the IC90 is more than 10 µM. The IC50 (PBLUC_HILL_SLOPE 0.7, PBLUC_R_SQUARED 0.775, read-out: LUCIFERASE INFECTION ASSAY - IC50) was found to be 0.591 µM.

The values are drawn from ChEMBL document CHEMBL4483862, “Open-source discovery of chemical leads for next-generation chemoprotective antimalarials” (2018).
